Data from patent US4171363A, “1,2,3-Thiadiazole process” (priority 1978, dated 1979).
Structures can show the parent of a compound that is named as a salt.

Assays:
[1] = system: α-adrenergic receptor; assay: isolated rat seminal vesicle assay, in vitro α-adrenergic receptor blocking effect against norepinephrine; details: antihypertensive activity ratio (A) over α-adrenergic blocking activity ratio (B)
Experimental: (§1) In Table 1, antihypertensive activity was determined by oral administration to spontaneous hypertensive rats, the in vitro α-adrenergic receptor blocking effect was determined according to the following test method.
(§2) Dungan et al, Int. […] Lietch et al, Brit.
(§3) Male Long Evans rats weighing approximately 300 g. were sacrificed by a sharp blow on the head. Seminal vesicles were removed and transferred to a shallow disk containing modified Tyrode's solution. The vesicles were emptied of their contents by squeezing them gently with a pair of forceps. Silk thread (4-0) was attached to both ends of the vesicle and it was suspended in a 20 ml. muscle chamber containing modified oxygenated Tyrode's solution (g./liter: NaCl 8, KCl 0.2, CaCl2 0.26, NaHCO3 1, Na2 HPO4 0.0575, glucose 0.5 and MgCl2 0.02). The bathing fluid was maintained at 37° C. with a thermostatically controlled isolated organ tissue bath. Contractions were recorded isometrically by means of a force displacement transducer and recordings were made with a Beckman RP Dynograph. Norepinephrine (NE) was added to the muscle chamber in volumes ranging from 0.1 to 0.4 ml. with a one ml. syringe attached to a 3 inch 20 gauge needle. NE and test compounds were dissolved in deionized water.
(§4) NE response curves were obtained alone and in the presence of test compounds. NE was allowed to remain in contact with the strip until a maximal contraction was obtained. The strip was then washed with the perfusion fluid for 15-30 seconds and the preparation was allowed to return to base line before a subsequent dose of NE was given. Increasing amounts of NE were injected into the bath in the same manner until a complete dose response was obtained.
(§5) The seminal vesicles used to obtain the control NE dose response were discarded and new preparations were placed in the tissue bath for evaluation of the test compound. The test compound was added directly to the perfursion fluid (10 nanograms/ml.) and the strips were allowed to remain in contact with the bathing media for at least 10 minutes before the NE dose response was determined.
(§6) ED50 values for NE were obtained by regression analysis as described by Finney, Probit. Analysis, 2d Ed., Cambridge (1964). A minimum of 4 strips and at least 4 doses were employed to calculate the regression lines. The ED50 value is defined as the concentration of NE which produces a contraction equal to 50% of the maximal contraction.

[2] = target: T1, α-adrenergic receptor (Rattus norvegicus, UniProt P43140); assay: as above; details: relative to prazosin; isolated rat seminal vesicle, test compound 10 nanograms/ml, norepinephrine agonist
T1 construct: Seminal vesicles were removed and transferred to a shallow disk containing modified Tyrode's solution; from tissue; host or cells: isolated seminal vesicle of male Long Evans rats
T1 sequence (P43140 1-466): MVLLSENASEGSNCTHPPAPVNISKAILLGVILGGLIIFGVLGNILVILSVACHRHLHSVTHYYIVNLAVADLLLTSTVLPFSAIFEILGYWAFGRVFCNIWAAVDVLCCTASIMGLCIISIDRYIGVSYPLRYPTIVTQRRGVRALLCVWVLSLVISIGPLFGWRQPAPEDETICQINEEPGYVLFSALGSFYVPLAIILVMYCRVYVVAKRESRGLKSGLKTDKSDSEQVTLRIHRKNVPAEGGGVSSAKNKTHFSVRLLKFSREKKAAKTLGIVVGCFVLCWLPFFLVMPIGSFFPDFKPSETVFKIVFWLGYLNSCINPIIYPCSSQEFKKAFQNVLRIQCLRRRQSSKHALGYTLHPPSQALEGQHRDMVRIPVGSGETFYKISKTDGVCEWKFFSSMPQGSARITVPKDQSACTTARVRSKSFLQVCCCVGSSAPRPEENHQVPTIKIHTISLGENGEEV
Experimental: as §1, §2, §3, §4, §5, §6

[3] = system: spontaneous hypertensive rats; assay: antihypertensive activity by oral administration to spontaneous hypertensive rats; assay type: in vivo, rat; details: for ED50 / Antihypertensive Activity Ratio (A): oral, spontaneous hypertensive rat; for ED50: read-out: Antihypertensive ED50 mm Hg; for Antihypertensive Activity Ratio (A): relative to prazosin
Experimental: as §1

[4] = system: patients; details: human, in vivo; cited from earlier work
[5] = system: humans; details: cited from earlier work

SMILES: CCOC(=O)Nc1snnc1C(=O)N1CCN(c2nc(N)c3cc(OC)c(OC)cc3n2)CC1 [Example 1, 4-Amino-6,7-dimethoxy-2-[4-(5-ethoxycarbonylamino-1,2,3-thiadiazole-4-carbonyl)-piperazin-1-vl]-quinazoline Hydrochloride]
- Ratio A/B [1]: 5.0
- α-Adr. Bl. Activity Ratio (B) [2]: 0.15
- reduction in systolic blood pressure ([3]; 24 hours after oral dose of 10 mg./kg., spontaneous hypertensive rats): 22%
- ED50 [3]: 2.8 mg/kg
- Antihypertensive Activity Ratio (A) [3]: 0.75

SMILES: COc1cc2nc(N3CCN(C(=O)c4cnns4)CC3)nc(N)c2cc1OC.Cl [Example 3, 4-Amino-6,7-dimethoxy-2-[4-(1,2,3-thiadiazole-5-carbonyl)piperazin-1-yl]quinazoline Hydrochloride]
- Ratio A/B [1]: 2.3
- α-Adr. Bl. Activity Ratio (B) [2]: 0.23
- ED50 [3]: 4 mg/kg
- Antihypertensive Activity Ratio (A) [3]: 0.53

SMILES: COc1cc2nc(N3CCN(C(=O)c4csnn4)CC3)nc(N)c2cc1OC.Cl [Example 2, 4Amino-6,7-dimethoxy-2-[4-(1,2,3-thiadiazole-4-carbonyl)piperazin-1-yl]quinazoline Hydrochloride]
- Ratio A/B [1]: 2.0
- α-Adr. Bl. Activity Ratio (B) [2]: 0.27
- ED50 [3]: 4 mg/kg
- Antihypertensive Activity Ratio (A) [3]: 0.53

SMILES: COc1cc2nc(N3CCN(C(=O)c4ccco4)CC3)nc(N)c2cc1OC [prazosin, 2-[4-(2-furoyl)-piperazin-1-yl]-4-amino-6,7-dimethoxyquinazoline, reference compound]
- adverse reactions, recent reports (in words) [4]: severe adverse reactions of postural hypotension in some patients
- ED50 [3]: 2.1 mg/kg

SMILES: COc1cc2c(N)nc(N3CCN(C(=O)OCC(C)(C)O)CC3)nc2c(OC)c1OC [Trimazosin]
- antihypertensive strength compared to prazosin (in words) ([5]; clinical daily dose approximately 150 to 500 mg. for trimazosin, 1.5 to 15 mg. for prazosin): much weaker drug than prazosin
- antihypertensive activity in humans (in words) ([5]; humans): active in humans as an antihypertensive agent
